In US12059471B2, “Complex” (UNITED IMMUNITY, CO., LTD., priority 2020, dated 2024):
In the oligonucleotide strings, read from the 5' end, every base follows the letter of its sugar. An asterisk marks phosphorothioate; unmarked linkages are phosphodiester. Other units and linkages are bracketed, terminal groups are in braces. A string of capitals states the bases alone. {Chol-TEG} = cholesterol attached through a triethylene glycol linker; d = 2'-deoxy (DNA)

Experiment: Complexation evaluation by size exclusion chromatography (SEC/HPLC)
Assay type: physicochemical
Conditions: Chol-CpG 20 uM, SEC, UV 260 nm, PBS
Experimental: As complexation evaluation of the Chol-CpG (K3)/CHP nanogel complex sample prepared in Test Example 1-5, size exclusion chromatography (SEC) was carried out. The conditions were as follows. Column: G3000SWXL (Tosoh Corporation), 7.8 mm×150 mm, detector: UV (260 nm), column detection temperature: 35° C., injection amount: 20 uL, flow rate: 0.5 mL/min, eluent: PBS (pH: 7.4). Using PBS as an eluent, the eluate was detected at 260 nm, which was an absorption wavelength specific to CpG, which was a nucleic acid adjuvant.
As the complexation evaluation of the Chol-CpG (D35)/CHP nanogel complex sample prepared in Test Example 2-3, size exclusion chromatography (SEC) was carried out in the same manner as in Test Example 1-6.

For “Chol-CpG (D35): Cholesterol linked to 5′-end of D35 CpG oligonucleotide (SEQ ID NO 2) through a triethylene glycol linker (DNA {Chol-TEG}-dG*dGdTdGdCdAdTdCdGdAdTdGdCdAdGdGdGdG*dG*dG)”, the “complexed ratio with the nanogel” value (CHP nanogel 40 uM, molar ratio nanogel:Chol-CpG 2:1) was about 100% and the “complexed ratio with the nanogel” value (molar ratio nanogel:Chol-CpG 1:1) was “about 90%”.
